The record followed here is US9079901B2, “Fused heterocyclic compounds as ion channel modulators” (Gilead Sciences, Inc., priority 2010, dated 2015).

This assay deals with wild-type human cardiac sodium channel, hNav1.5 (late sodium current) in HEK293 cells (Homo sapiens, UniProt Q14524). As to the kind of experiment: Late INa screening assay (automated whole-cell patch clamp, PatchXpress). The following applies: HEK293, compound at 1 μM; late INa generated with 10 μM Tefluthrin (or 50 nM ATX II); HEK293 hNav1.5; read-out: Late INa 1 μM (percent block of late INa). It is filed as cell-based. As for the experimental part:
The late sodium current (Late INa) and peak sodium current (Peak INa) assays are performed on an automated electrophysiology platform, PatchXpress 7000A (MDS Analytical Technologies, Sunnyvale, Calif.), which uses the whole cell patch clamp technique to measure currents through the cell membrane of up to 16 cells at a time. The assay uses an HEK293 (human embryonic kidney) cell line heterologously expressing the wild-type human cardiac sodium channel, hNav1.5, purchased from Millipore (Billerica, Mass.). No beta subunits were coexpressed with the Na channel alpha subunit. Cells are maintained with standard tissue culture procedures and stable channel expression is maintained with 400 μg/ml Geneticin in the culture medium. Cells isolated for use on PatchXpress are incubated for 5 minutes in Versene 1× and then for 2 minutes in 0.0125% Trypsin-EDTA (both at 37° C.) to ensure that 80-90% of the cells are single and not part of a cell cluster. Experiments are carried out at 24-27° C.
For both the Late INa and Peak INa assays, series resistance compensation is set to 50% and whole-cell compensation is performed automatically. Currents are low-pass filtered at 10 kHz and digitized at 31.25 kHz. Currents through open sodium channels are automatically recorded and stored in the DataXpress2 database (MDS Analytical Technologies, Sunnyvale, Calif.). Analysis is performed using DataXpress2 analysis software and data are compiled in Excel.
Compound stocks are routinely made in glass vials to 10 mM in dimethyl sulfoxide (DMSO). In some cases, when compounds are not soluble in DMSO, they are made in 100% ethanol. Stocks are sonicated as necessary. The extracellular solution for screening Late INa is composed of: 140 mM NaCl, 4 mM KCl, 1.8 mM CaCl2, 0.75 mM MgCl2, and 5 mM HEPES with pH adjusted to 7.4 using NaOH. The extracellular solution for screening Peak INa is composed of: 20 mM NaCl, 120 mM N-methyl-D glucamine, 4 mM KCl, 1.8 mM CaCl2, 0.75 mM MgCl2, and 5 mM HEPES with pH adjusted to 7.4 using HCl. The intracellular solution used to perfuse the inside of the cells for both the Late INa and Peak INa assays contains: 120 mM CsF, 20 mM CsCl, 5 mM EGTA, 5 mM HEPES and pH adjusted to 7.4 with CsOH. Compounds are diluted in extracellular solution to 10 μM in glass vials and then transferred to glass well plates before robotic addition to the cells. The 0Na extracellular solution used at the end of each experiment for the Late INa and Peak INa assays to measure baseline current contains: 140 mM N-methyl-D-glucamine; 4 mM KCl; 1.8 mM CaCl2; 0.75 mM MgCl2; 5 mM HEPES and pH was adjusted to 7.4 with HCl.
For the Late INa assay, sodium channels are activated every 10 seconds (0.1 Hz) by depolarizing the cell membrane to −20 mV for 250 milliseconds (ms) from a holding potential of −120 mV. In response to a −20 mV voltage step, typical Nav1.5 sodium currents activate rapidly to a peak negative current and then inactivate nearly completely within 3-4 ms.
All compounds are tested to determine their activity in blocking the late sodium current. Late INa current is generated by adding 10 μM Tefluthrin (pyrethroid) to the extracellular solution while recording Na currents. For some experiments, 50 nM ATX II (sea anemone toxin), another late INa activator, was used to generate the late component. Both activators generate late components that are large enough that block of the late component by compounds can be measured easily. For the purposes of the screening, late INa is defined as the mean current between 225 ms and 250 ms after stepping to −20 mV to activate Na channels. After establishing the whole cell recording configuration, late INa activators are added to each well 4 times over a 16-17 minute period so that the late component of the Na current reaches a stable value. Compounds are then added (typically at 10 μM), in the presence of late INa activator, with 3 additions over the course of 7 or 8 minutes. […]
Background: In patch-clamp work, channel activity is measured electrically.

Chain of wild-type human cardiac sodium channel, hNav1.5 (late sodium current) in HEK293 cells (Q14524 whole entry): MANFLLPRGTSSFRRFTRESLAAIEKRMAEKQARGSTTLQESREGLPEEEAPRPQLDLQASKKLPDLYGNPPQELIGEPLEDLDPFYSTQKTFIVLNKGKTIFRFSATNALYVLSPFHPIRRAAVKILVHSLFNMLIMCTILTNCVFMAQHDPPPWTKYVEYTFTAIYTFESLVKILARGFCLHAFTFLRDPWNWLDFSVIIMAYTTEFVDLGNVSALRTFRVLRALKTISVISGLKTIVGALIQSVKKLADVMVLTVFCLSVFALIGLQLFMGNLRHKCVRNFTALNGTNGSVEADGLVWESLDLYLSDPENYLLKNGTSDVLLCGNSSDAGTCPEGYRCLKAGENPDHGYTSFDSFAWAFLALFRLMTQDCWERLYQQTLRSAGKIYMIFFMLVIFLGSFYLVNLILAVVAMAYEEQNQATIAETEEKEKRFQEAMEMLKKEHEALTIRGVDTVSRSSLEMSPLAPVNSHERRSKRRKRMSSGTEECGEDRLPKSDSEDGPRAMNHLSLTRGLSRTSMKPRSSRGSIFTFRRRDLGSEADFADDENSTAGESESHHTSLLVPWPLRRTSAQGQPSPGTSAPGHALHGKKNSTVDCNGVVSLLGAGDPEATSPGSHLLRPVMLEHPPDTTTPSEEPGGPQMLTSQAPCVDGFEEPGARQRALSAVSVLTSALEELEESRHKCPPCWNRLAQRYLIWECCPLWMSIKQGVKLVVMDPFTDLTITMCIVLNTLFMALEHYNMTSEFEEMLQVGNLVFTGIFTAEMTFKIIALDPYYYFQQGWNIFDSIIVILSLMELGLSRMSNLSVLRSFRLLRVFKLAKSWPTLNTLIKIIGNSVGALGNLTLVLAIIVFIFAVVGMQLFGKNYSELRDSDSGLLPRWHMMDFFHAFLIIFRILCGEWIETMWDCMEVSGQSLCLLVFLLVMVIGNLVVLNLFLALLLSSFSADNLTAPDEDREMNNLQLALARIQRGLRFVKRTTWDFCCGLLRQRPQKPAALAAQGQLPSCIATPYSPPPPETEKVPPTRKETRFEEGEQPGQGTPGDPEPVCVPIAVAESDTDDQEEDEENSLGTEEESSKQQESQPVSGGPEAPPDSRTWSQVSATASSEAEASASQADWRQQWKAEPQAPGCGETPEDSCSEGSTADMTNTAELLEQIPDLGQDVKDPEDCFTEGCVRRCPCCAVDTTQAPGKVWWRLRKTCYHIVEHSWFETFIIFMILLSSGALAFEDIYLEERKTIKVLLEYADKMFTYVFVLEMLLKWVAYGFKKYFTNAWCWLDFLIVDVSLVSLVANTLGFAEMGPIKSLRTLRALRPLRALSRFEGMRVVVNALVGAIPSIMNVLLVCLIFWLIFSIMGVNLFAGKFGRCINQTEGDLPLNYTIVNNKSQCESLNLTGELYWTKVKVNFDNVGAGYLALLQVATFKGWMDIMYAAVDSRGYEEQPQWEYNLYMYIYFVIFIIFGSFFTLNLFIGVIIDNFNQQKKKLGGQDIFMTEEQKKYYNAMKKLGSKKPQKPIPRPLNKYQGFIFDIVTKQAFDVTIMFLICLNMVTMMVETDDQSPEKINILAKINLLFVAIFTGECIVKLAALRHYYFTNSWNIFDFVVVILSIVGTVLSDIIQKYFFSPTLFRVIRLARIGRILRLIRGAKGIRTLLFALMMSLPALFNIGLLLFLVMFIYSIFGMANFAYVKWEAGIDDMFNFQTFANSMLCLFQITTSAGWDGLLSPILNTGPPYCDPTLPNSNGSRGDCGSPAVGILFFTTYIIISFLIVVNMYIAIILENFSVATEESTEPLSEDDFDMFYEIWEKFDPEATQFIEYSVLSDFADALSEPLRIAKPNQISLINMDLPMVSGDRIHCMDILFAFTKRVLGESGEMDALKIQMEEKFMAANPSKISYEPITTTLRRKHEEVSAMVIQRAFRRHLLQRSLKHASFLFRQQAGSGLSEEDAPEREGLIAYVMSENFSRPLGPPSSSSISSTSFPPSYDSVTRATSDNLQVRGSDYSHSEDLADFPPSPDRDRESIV

Consider `O=c1n(CC(O)COc2ccc(Cl)cc2)nc2ccc(-c3ccc(OC(F)(F)F)cc3)cn12` (stereo not drawn) [compound 38, 2-(3-(4-chlorophenoxy)-2-hydroxypropyl)-6-(4-(trifluoromethoxy)phenyl)-[1,2,4]triazolo[4,3-a]pyridin-3(2H)-one], for which the inhibition at 1 µM was 10.8%.
Take `O=c1n(CCN2CCC(Oc3ccccc3)C2)nc2ccc(-c3ccc(OC(F)(F)F)cc3)cn12` (stereo not drawn) [compound 39, 2-(2-(3-phenoxypyrrolidin-1-yl)ethyl)-6-(4-(trifluoromethoxy)phenyl)-[1,2,4]triazolo[4,3-a]pyridin-3(2H)-one]: the inhibition at 1 µM was 45.4%.
Take `O=c1n(CCOc2ccc(Cl)cc2)nc2ccc(-c3ccc(OC(F)(F)F)cc3)cn12` [compound 40, 2-(2-(4-chlorophenoxy)ethyl)-6-(4-(trifluoromethoxy)phenyl)-[1,2,4]triazolo[4,3-a]pyridin-3(2H)-one]: the inhibition at 1 µM was found to be 34.3%.
For `O=c1n(CCn2cc(Cl)cn2)nc2ccc(-c3ccc(OC(F)(F)F)cc3)cn12` [compound 41, 2-(2-(4-chloro-1H-pyrazol-1-yl)ethyl)-6-(4-(trifluoromethoxy)phenyl)-[1,2,4]triazolo[4,3-a]pyridin-3(2H)-one], the inhibition at 1 µM was determined as 12.2%.
Next, `Cc1ccn(CCn2nc3ccc(-c4ccc(OC(F)(F)F)cc4)cn3c2=O)n1` [compound 42, 2-(2-(3-methyl-1H-pyrazol-1-yl)ethyl)-6-(4-(trifluoromethoxy)phenyl)-[1,2,4]triazolo[4,3-a]pyridin-3(2H)-one]: 18.9%; `O=c1n(CC(O)COc2ccccc2)nc2ccc(-c3ccc(OC(F)(F)F)cc3)cn12` (stereo not drawn) [compound 43, 2-(2-hydroxy-3-phenoxypropyl)-6-(4-(trifluoromethoxy)phenyl)-[1,2,4]triazolo[4,3-a]pyridin-3(2H)-one]: 19.3%.
As for `Cc1cccc(C)c1OCCn1nc2ccc(-c3ccc(OC(F)(F)F)cc3)cn2c1=O` [compound 44, 2-(2-(2,6-dimethylphenoxy)ethyl)-6-(4-(trifluoromethoxy)phenyl)-[1,2,4]triazolo[4,3-a]pyridin-3(2H)-one], the inhibition at 1 µM is 43.1%.
Next, `O=c1n(CCn2cnc(-c3ccccc3)c2)nc2ccc(-c3ccc(OC(F)(F)F)cc3)cn12` [compound 45, 2-(2-(4-phenyl-1H-imidazol-1-yl)ethyl)-6-(4-(trifluoromethoxy)phenyl)-[1,2,4]triazolo[4,3-a]pyridin-3(2H)-one]: 11.8%; `O=c1n(CCOc2ccccc2Cl)nc2ccc(-c3ccc(OC(F)(F)F)cc3)cn12` [compound 46, 2-(2-(2-chlorophenoxy)ethyl)-6-(4-(trifluoromethoxy)phenyl)-[1,2,4]triazolo[4,3-a]pyridin-3(2H)-one]: 43.2%; `O=c1n(CCOc2ncccc2C(F)(F)F)nc2ccc(-c3ccc(OC(F)(F)F)cc3)cn12` [compound 47, 6-(4-(trifluoromethoxy)phenyl)-2-(2-(3-(trifluoromethyl)pyridin-2-yloxy)ethyl)-[1,2,4]triazolo[4,3-a]pyridin-3(2H)-one]: 43.6%.
Next, `Cc1cccc(CCn2nc3ccc(-c4ccc(OC(F)(F)F)cc4)cn3c2=O)n1` [compound 48, 2-(2-(6-methylpyridin-2-yl)ethyl)-6-(4-(trifluoromethoxy)phenyl)-[1,2,4]triazolo[4,3-a]pyridin-3(2H)-one]: 34.9%.
Next, `O=c1n(CCOc2ccccn2)nc2ccc(-c3ccc(OC(F)(F)F)cc3)cn12` [compound 49, 2-(2-(pyridin-2-yloxy)ethyl)-6-(4-(trifluoromethoxy)phenyl)-[1,2,4]triazolo[4,3-a]pyridin-3(2H)-one]: 29.9%; `O=c1n(CCN2CCC(F)(F)CC2)nc2ccc(-c3ccc(OC(F)(F)F)cc3)cn12` [compound 50, 2-(2-(4,4-difluoropiperidin-1-yl)ethyl)-6-(4-(trifluoromethoxy)phenyl)-[1,2,4]triazolo[4,3-a]pyridin-3(2H)-one]: 14.2%; `O=c1n(CCCOc2ccccc2F)nc2ccc(-c3ccc(OC(F)(F)F)cc3)cn12` [compound 51, 2-(3-(2-fluorophenoxy)propyl)-6-(4-(trifluoromethoxy)phenyl)-[1,2,4]triazolo[4,3-a]pyridin-3(2H)-one]: 25.6%.
With `O=c1n(CCCOc2ccccc2Cl)nc2ccc(-c3ccc(OC(F)(F)F)cc3)cn12` [compound 52, 2-(3-(2-chlorophenoxy)propyl)-6-(4-(trifluoromethoxy)phenyl)-[1,2,4]triazolo[4,3-a]pyridin-3(2H)-one], the inhibition at 1 µM came out at 33.3%.
As for `Cc1noc(Cn2nc3ccc(-c4ccc(Oc5ccc(Cl)cc5)cc4)cn3c2=O)n1` [compound 53, 6-(4-(4-chlorophenoxy)phenyl)-2-((3-methyl-1,2,4-oxadiazol-5-yl)methyl)-[1,2,4]triazolo[4,3-a]pyridin-3(2H)-one], the inhibition at 1 µM came to 55.9%.
As for `O=c1n(CCOc2cccc(Cl)c2)nc2ccc(-c3ccc(OC(F)(F)F)cc3)cn12` [compound 54, 2-(2-(3-chlorophenoxy)ethyl)-6-(4-(trifluoromethoxy)phenyl)-[1,2,4]triazolo[4,3-a]pyridin-3(2H)-one], the inhibition at 1 µM stood at 20.2%.
For the molecule `O=c1n(CCOc2ccc(F)cc2)nc2ccc(-c3ccc(OC(F)(F)F)cc3)cn12` [compound 55, 2-(2-(4-fluorophenoxy)ethyl)-6-(4-(trifluoromethoxy)phenyl)-[1,2,4]triazolo[4,3-a]pyridin-3(2H)-one], the inhibition at 1 µM is 24.3%.
Consider `O=c1n(CCc2ncccc2Br)nc2ccc(-c3ccc(OC(F)(F)F)cc3)cn12` [compound 56, 2-(2-(3-bromopyridin-2-yl)ethyl)-6-(4-(trifluoromethoxy)phenyl)-[1,2,4]triazolo[4,3-a]pyridin-3(2H)-one], for which the inhibition at 1 µM is 39.8%.
Next, `O=c1n(CCc2cc(C3CC3)ccn2)nc2ccc(-c3ccc(OC(F)(F)F)cc3)cn12` [compound 57, 2-(2-(4-cyclopropylpyridin-2-yl)ethyl)-6-(4-(trifluoromethoxy)phenyl)-[1,2,4]triazolo[4,3-a]pyridin-3(2H)-one]: 20.7%; `Cc1ccnc(CCn2nc3ccc(-c4ccc(OC(F)(F)F)cc4)cn3c2=O)c1` [compound 58, 2-(2-(4-methylpyridin-2-yl)ethyl)-6-(4-(trifluoromethoxy)phenyl)-[1,2,4]triazolo[4,3-a]pyridin-3(2H)-one]: 14.9%; `O=c1n(CCc2ccc(F)cc2)nc2ccc(-c3ccc(OC(F)(F)F)cc3)cn12` [compound 59, 2-(4-fluorophenethyl)-6-(4-(trifluoromethoxy)phenyl)-[1,2,4]triazolo[4,3-a]pyridin-3(2H)-one]: 27.1%.
Next, `O=c1n(CCc2ncccc2C2CC2)nc2ccc(-c3ccc(OC(F)(F)F)cc3)cn12` [compound 60, 2-(2-(3-cyclopropylpyridin-2-yl)ethyl)-6-(4-(trifluoromethoxy)phenyl)-[1,2,4]triazolo[4,3-a]pyridin-3(2H)-one]: 34.1%; `Cc1cccnc1CCn1nc2ccc(-c3ccc(OC(F)(F)F)cc3)cn2c1=O` [compound 61, 2-(2-(3-methylpyridin-2-yl)ethyl)-6-(4-(trifluoromethoxy)phenyl)-[1,2,4]triazolo[4,3-a]pyridin-3(2H)-one]: 41.5%.
